# According to the kinase profiling compilation of Christmann-Franck et al. (2016):
# Where “and” joins values, the source holds several entries; their conditions need not be identical. Identical values can stand only once.
# What was measured:
# Test in all cases: radiometric filter-binding kinase assay, Kinase HotSpot
# Conditions in all cases: compound 0.5 µM; ATP 10 µM
# [1] = biological target: SIK2 (human) (UniProt Q9H0K1)
# [2] = biological target: TAOK1 (human) (UniProt Q7L7X3)
# [3] = biological target: MARK4 (human) (UniProt Q96L34)
# [4] = biological target: BRSK1 (human) (UniProt Q8TDC3)
# [5] = biological target: HIPK1 (human) (UniProt Q86Z02)
# [6] = biological target: PIM1 (human) (UniProt P11309)
# [7] = biological target: OXSR1 (human) (UniProt O95747)
# [8] = biological target: MAP2K1 (human) (UniProt Q02750)
# [9] = biological target: NEK6 (human) (UniProt Q9HC98)
# [10] = biological target: CDK5 CDK5R1 p25 (human) (UniProt Q00535+Q15078)
# [11] = biological target: SGK2 (human) (UniProt Q9HBY8)
# [12] = biological target: PTK2B (human) (UniProt Q14289)
# [13] = biological target: ITK (human) (UniProt Q08881)
# [14] = biological target: EPHB3 (human) (UniProt P54753)
# [15] = biological target: ACVRL1 (human) (UniProt P37023)
# [16] = biological target: CAMKK2 (human) (UniProt Q96RR4)
# [17] = biological target: MAP2K2 (human) (UniProt P36507)
# [18] = biological target: BLK (human) (UniProt P51451)
# [19] = biological target: MAP3K14 (human) (UniProt Q99558)
# [20] = biological target: EPHA7 (human) (UniProt Q15375)
# [21] = biological target: EPHA1 (human) (UniProt P21709)
# [22] = biological target: PLK1 (human) (UniProt P53350)
# [23] = biological target: PIM3 (human) (UniProt Q86V86)
# [24] = biological target: LYN (human) (UniProt P07948)
# [25] = biological target: FGFR4 (human) (UniProt P22455)
# [26] = biological target: MAP3K2 (human) (UniProt Q9Y2U5)
# [27] = biological target: ALK (human) (UniProt Q9UM73)
# [28] = biological target: CAMKK1 (human) (UniProt Q8N5S9)
# [29] = biological target: RAF1 (human) (UniProt P04049)
# [30] = biological target: MAPK1 (human) (UniProt P28482)
# [31] = biological target: GRK4 (human) (UniProt P32298)
# [32] = biological target: DSTYK (human) (UniProt Q6XUX3)
# [33] = biological target: PRKACA (human) (UniProt P17612)
# [34] = biological target: CDK1 CCNB1 (human) (UniProt P06493+P14635)
# [35] = biological target: DCLK2 (human) (UniProt Q8N568)
# [36] = biological target: PHKG1 (human) (UniProt Q16816)
# [37] = biological target: EPHB4 (human) (UniProt P54760)
# [38] = biological target: CSF1R (human) (UniProt P07333)
# [39] = biological target: MAP3K11 (human) (UniProt Q16584)
# [40] = biological target: AKT1 (human) (UniProt P31749)
# [41] = biological target: MINK1 (human) (UniProt Q8N4C8)
# [42] = biological target: MAPK9 (human) (UniProt P45984)
# LYN (human), sequence (P07948 whole entry, looked up): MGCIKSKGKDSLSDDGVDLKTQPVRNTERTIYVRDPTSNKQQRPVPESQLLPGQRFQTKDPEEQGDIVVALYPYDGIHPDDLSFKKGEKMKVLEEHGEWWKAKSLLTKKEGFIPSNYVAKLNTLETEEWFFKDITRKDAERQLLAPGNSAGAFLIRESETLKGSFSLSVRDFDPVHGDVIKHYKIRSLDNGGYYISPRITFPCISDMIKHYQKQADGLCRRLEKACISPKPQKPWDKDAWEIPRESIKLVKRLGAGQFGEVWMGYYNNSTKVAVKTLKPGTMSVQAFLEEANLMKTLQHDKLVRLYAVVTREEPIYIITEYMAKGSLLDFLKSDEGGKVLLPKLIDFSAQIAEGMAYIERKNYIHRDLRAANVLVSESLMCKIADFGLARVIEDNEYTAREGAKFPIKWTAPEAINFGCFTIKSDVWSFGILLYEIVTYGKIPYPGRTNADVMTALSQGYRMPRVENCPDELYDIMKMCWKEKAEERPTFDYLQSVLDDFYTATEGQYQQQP
# CAMKK1 (human), sequence (Q8N5S9 whole entry, looked up): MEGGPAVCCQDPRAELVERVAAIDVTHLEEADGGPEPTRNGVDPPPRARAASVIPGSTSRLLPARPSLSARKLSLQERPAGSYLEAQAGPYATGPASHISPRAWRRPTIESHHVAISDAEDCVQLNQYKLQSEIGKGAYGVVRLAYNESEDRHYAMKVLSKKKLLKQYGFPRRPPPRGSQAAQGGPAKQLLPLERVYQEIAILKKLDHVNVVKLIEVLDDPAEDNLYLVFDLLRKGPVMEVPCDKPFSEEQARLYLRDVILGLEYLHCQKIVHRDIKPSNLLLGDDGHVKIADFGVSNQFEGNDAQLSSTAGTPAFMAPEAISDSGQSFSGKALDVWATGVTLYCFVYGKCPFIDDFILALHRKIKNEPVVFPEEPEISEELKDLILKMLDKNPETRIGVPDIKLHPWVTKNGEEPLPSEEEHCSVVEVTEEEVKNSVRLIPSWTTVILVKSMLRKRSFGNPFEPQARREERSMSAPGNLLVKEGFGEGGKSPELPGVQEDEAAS
# BRSK1 (human), sequence (Q8TDC3 whole entry, looked up): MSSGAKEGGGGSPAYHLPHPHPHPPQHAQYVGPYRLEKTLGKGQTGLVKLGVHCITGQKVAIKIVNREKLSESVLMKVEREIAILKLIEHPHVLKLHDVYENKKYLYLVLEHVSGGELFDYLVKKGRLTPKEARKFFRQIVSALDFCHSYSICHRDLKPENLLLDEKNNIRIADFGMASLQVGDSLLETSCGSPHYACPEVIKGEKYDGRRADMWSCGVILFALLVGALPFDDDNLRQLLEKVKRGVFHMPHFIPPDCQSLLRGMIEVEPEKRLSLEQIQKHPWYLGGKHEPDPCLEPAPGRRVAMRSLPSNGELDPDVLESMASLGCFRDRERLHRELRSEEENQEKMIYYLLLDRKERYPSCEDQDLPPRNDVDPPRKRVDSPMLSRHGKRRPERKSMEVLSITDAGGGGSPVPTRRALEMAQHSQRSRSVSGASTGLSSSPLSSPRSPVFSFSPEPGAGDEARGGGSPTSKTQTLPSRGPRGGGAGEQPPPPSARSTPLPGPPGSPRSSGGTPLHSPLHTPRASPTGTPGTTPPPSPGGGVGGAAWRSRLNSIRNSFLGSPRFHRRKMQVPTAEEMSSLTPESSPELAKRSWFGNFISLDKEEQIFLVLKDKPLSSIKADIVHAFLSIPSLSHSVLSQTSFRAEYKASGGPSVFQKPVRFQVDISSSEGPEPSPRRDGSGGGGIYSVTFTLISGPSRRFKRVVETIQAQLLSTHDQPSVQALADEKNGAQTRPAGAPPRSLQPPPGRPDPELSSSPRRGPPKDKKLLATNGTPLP
# PTK2B (human), sequence (Q14289 whole entry, looked up): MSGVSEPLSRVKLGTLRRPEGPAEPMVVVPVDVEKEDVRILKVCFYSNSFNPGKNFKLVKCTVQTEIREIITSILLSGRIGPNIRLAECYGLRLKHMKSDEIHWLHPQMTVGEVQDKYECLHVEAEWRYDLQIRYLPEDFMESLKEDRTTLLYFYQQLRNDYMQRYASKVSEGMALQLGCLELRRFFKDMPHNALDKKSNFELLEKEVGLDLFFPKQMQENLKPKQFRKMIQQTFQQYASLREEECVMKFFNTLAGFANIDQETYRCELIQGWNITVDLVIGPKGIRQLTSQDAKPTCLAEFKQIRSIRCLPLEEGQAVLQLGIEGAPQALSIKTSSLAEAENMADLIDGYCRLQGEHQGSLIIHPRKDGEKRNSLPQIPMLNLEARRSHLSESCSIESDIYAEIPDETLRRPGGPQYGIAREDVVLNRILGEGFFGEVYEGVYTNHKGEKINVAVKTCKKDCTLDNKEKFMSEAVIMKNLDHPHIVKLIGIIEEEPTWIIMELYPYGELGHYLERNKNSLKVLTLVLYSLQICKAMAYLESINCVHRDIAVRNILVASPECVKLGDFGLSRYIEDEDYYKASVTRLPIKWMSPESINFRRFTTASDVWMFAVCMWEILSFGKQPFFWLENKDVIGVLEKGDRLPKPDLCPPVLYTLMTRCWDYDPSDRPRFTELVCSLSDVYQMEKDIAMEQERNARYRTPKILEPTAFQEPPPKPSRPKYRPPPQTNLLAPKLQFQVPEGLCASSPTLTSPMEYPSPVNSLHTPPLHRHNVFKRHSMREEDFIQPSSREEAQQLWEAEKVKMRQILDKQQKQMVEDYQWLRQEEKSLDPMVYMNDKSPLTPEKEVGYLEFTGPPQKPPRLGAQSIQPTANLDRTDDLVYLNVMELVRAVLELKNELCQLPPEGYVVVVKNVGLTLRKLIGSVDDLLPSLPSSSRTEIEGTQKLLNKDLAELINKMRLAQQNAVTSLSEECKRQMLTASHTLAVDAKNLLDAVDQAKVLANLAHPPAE
# MAP3K14 (human), sequence (Q99558 whole entry, looked up): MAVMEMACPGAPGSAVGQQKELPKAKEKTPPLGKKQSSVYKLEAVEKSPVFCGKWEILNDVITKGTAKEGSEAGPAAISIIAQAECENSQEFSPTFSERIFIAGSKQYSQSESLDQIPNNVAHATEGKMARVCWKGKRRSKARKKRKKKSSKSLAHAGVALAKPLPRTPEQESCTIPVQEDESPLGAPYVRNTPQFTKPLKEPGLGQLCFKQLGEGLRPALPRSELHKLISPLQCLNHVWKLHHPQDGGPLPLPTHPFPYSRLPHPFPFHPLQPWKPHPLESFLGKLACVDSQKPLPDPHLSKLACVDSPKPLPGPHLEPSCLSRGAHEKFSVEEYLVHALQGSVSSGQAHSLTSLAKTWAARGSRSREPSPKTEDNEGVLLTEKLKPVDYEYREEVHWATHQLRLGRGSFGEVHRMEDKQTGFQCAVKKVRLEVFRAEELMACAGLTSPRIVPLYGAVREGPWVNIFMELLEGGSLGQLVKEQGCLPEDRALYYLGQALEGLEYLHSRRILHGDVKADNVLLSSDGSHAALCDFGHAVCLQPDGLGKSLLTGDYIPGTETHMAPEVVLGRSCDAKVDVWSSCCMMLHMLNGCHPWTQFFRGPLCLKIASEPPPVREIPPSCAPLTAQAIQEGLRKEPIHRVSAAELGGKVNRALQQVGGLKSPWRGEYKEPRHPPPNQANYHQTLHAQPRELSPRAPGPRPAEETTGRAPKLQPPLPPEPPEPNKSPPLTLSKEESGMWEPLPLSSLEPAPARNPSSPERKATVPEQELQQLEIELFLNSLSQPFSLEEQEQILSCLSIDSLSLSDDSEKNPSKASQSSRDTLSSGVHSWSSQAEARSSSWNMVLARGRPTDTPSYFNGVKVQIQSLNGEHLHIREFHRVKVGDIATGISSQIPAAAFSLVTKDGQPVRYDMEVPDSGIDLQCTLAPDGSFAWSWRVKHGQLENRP
# MAP3K2 (human), sequence (Q9Y2U5 whole entry, looked up): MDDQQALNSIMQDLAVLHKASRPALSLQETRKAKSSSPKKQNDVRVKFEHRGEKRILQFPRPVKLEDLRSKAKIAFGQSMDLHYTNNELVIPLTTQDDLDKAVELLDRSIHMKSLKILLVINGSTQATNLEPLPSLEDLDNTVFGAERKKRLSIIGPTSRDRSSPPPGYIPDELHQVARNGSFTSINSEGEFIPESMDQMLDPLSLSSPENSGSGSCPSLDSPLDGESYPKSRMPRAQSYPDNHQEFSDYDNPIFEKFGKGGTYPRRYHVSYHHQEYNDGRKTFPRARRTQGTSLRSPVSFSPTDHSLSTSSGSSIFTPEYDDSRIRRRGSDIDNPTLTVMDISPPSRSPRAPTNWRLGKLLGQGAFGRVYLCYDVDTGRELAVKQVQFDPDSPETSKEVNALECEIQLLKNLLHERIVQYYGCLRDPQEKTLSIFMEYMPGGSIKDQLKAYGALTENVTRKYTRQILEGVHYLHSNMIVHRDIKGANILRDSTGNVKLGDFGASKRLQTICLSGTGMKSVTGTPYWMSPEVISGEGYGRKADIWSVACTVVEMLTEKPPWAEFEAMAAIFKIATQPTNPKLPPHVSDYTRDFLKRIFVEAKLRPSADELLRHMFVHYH
# CDK5 CDK5R1 p25 (human), sequence (Q00535 whole entry, looked up): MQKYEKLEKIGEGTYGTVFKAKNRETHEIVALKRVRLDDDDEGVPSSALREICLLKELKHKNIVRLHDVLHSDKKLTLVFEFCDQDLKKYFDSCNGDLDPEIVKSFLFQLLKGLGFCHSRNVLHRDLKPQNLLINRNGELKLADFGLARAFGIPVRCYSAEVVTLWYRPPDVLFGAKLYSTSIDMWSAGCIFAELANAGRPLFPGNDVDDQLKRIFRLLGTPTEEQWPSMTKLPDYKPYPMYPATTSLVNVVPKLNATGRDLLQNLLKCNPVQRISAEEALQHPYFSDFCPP
# CDK5 CDK5R1 p25 (human), sequence (Q15078 whole entry, looked up): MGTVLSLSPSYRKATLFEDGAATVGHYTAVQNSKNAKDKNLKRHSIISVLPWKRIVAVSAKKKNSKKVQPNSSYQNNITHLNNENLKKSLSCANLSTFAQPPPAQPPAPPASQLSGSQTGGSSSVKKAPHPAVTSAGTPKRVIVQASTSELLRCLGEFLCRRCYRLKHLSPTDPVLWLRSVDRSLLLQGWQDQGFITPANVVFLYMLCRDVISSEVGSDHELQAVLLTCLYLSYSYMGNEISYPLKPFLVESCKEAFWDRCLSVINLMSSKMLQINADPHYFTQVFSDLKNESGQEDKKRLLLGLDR
smiles,measurement,setting,value
CCOc1cc2ncnc(Nc3cccc(Br)c3)c2cc1OCC,residual activity,[1],109%
same,residual activity,[2],99.9%
same,residual activity,[3],99.2%
same,residual activity,[4],86.1%
same,residual activity,[5],104%
same,residual activity,[6],92.1%
same,residual activity,[7],102%
same,residual activity,[8],96.1%
same,residual activity,[9],106%
same,residual activity,[10],89.5%
same,residual activity,[11],106%
same,residual activity,[12],95.8%
same,residual activity,[13],104%
same,residual activity,[14],99.7%
same,residual activity,[15],103%
same,residual activity,[16],101%
same,residual activity,[17],95.5%
same,residual activity,[18],74.9%
same,residual activity,[19],93.4%
same,residual activity,[20],58.5%
same,residual activity,[21],84.7%
same,residual activity,[22],93.6%
same,residual activity,[23],105%
same,residual activity,[24],32.1% and 49.5%
same,residual activity,[25],87.1%
same,residual activity,[26],102%
same,residual activity,[27],85.8%
same,residual activity,[28],88.2%
same,residual activity,[29],91.6%
same,residual activity,[30],104%
same,residual activity,[31],96.2%
same,residual activity,[32],101%
same,residual activity,[33],98.9%
same,residual activity,[34],80.8%
same,residual activity,[35],99.5%
same,residual activity,[36],84.2%
same,residual activity,[37],43%
same,residual activity,[38],87.6%
same,residual activity,[39],93%
same,residual activity,[40],112%
same,residual activity,[41],77.8%
same,residual activity,[42],98.5%
